Drawing on ChEMBL document CHEMBL1138724, “Synthesis and anticonvulsant activity of new 2-substituted-5- [2-(2-fluorophenoxy)phenyl]-1,3,4-oxadiazoles and 1,2,4-triazoles” (Bioorg Med Chem Lett, 2004), this text covers LD50 and ED50 for seven compounds.

Where only a bound is given, the exact number is not on record here.

The nature of series [1]: Lethal dose in mice. It counts as toxicity. Particulars: mouse, in vivo.
Series [2] deals with Mus musculus. Put plainly: Effective dose required to protect mice against convulsion induced by a lethal dose of PTZ (100 mg/kg) was determined. It counts as functional.
The test system of series [3] is Mus musculus. Put plainly: Effective dose required to protect mice against convulsion induced by a lethal dose of PTZ (100 mg/kg) was determined in the presence of 10 mg/kg flumazenil. The format is functional.
The species named for series [4] is Mus musculus. Nature of the series: Effective dose required to protect mice against convulsion induced electroshock was determined by MES test. It counts as functional.
Series [5] relates to Mus musculus. Nature of the series: Effective dose required to protect mice against convulsion induced electroshock was determined by MES test in the presence of 10 mg/kg flumazenil.

`CCOc1n[nH]c(-c2ccccc2Oc2ccccc2F)n1`: the LD50 in series [1] was over 300 mg/kg. In addition, it took a dose of 84.8 mg/kg to reach the 50% effect level in the series on Mus musculus [2] (ED50).
Compound `Nc1nnc(-c2ccccc2Oc2ccccc2F)o1` yielded an LD50 in series [1] of over 300 mg/kg. Besides, the figures for the 50% effective dose (ED50) in the series on Mus musculus [3] and in the series listed under Mus musculus [4] were 39.2 mg/kg and 9.57 mg/kg, respectively.
As to `CN1C(=O)CN=C(c2ccccc2)c2cc(Cl)ccc21` [DIAZEPAM], the ED50 in the series on Mus musculus [2] came out at 1.87 mg/kg; in the series on Mus musculus [5], 1.57 mg/kg.
`CSc1nnc(-c2ccccc2Oc2ccccc2F)o1` returned an LD50 in series [1] of over 300 mg/kg. The compound also came in with an ED50 in the series listed under Mus musculus [4] of over 100 mg/kg.
In the same order, the values of `Oc1nnc(-c2ccccc2Oc2ccccc2F)o1` are over 300 mg/kg and over 100 mg/kg.
The compound `Fc1ccccc1Oc1ccccc1-c1nnc(S)o1` yielded an LD50 in series [1] of over 300 mg/kg. Further, the ED50 with Mus musculus [2] is over 100 mg/kg; in the series filed under Mus musculus [4], 43.1 mg/kg.
In the same order, the values of `Fc1ccccc1Oc1ccccc1-c1n[nH]c(S)n1` are over 300 mg/kg, over 100 mg/kg and 92 mg/kg.

In general, LD50 refers to the dose expected to kill half of the subjects tested. For orientation: ED50 means the dose at which the effect has come halfway, by size or by number of responders.
